The text below walks through data of US12023397B2, “Scalp protection composition” (PATECH FINE CHEMICALS CO., LTD., priority 2021, dated 2024).

The nature of data set [1]: Hydrolysis resistance (variation in acid value in alkaline aqueous solution, pH 13). Type of data set: physicochemical. The note with it: 10 g sample + 20 g NaOH aqueous solution pH 13, 40±1° C. Here is the method:
10 g of the carboxylate compound of formula (I-1) prepared in Synthesis Example 1 was mixed with 20 g of an alkaline aqueous solution with a pH value of 13 (which contained sodium hydroxide and water), and then subjected to a reaction at 40±1° C. for 4 hours. Next, the variation in acid value (mg KOH/g) was measured at the 0.75th, 2nd, 3rd, and 4th hours after starting the reaction.
The carboxylate compound of formula (I-2) prepared in Synthesis Example 2, the carboxylate compound of formula (I-3) prepared in Synthesis Example 3, and the test samples of Comparative Examples 1 to 2 were subjected to the same reaction and measurement as described above.
The smaller the variation in acid value, the better the hydrolysis resistance to strong bases is.

A short description of data set [2]: Spreadability (spreading rate on quantitative filter paper). The note with it: 50 μL on quantitative filter paper NO. 5C, spreading area after 5 minutes divided by time. Format: physicochemical. Here is the method: 50 μL of the carboxylate compound of formula (I-1) prepared in Synthesis Example 1 was dropped on the center of a quantitative filter paper (NO. 5C), and after 5 minutes, the spreading area of the carboxylate compound of formula (I-1) on the quantitative filter paper was measured. The spreading rate (mm^2/min) was calculated by dividing the spreading area by the spreading time (i.e., 5 minutes).
The carboxylate compound of formula (I-2) prepared in Synthesis Example 2, the carboxylate compound of formula (I-3) prepared in Synthesis Example 3, and the test samples of Comparative Examples 1 to 3 were subjected to the same measurement as described above.
The higher the spreading rate, the better the spreadability is.

For another data set, the system named is skin of a test subject. In words: Moisture retention (skin moisture content after application). Type of data set: in vivo. The note with it: 20° C.±3° C., relative humidity 30%±5%. The method, then:
0.1 g of the scalp protection composition of Example 1 was applied to the skin of a test subject. At the 1st, 2nd, and 3rd hours after start of application of the scalp protection composition of Example 1, the skin moisture content (%) of the test subject was measured by using a skin moisture tester (Manufacturer: Cortex Technology; Model no.: DermaLab® Combo) under a temperature of 20° C.±3° C. and a relative humidity of 30%±5%.
The test samples of Comparative Examples 1 and 3 were subjected to the same measurement as described above.
The higher the skin moisture content, the better the moisture retention is.

As for `CCCCCCCCCCC(CCCCCCCC)COC(=O)CCCCCCCCCCCCCCC(C)C` (stereo not shown) [Comparative Example 1, 2-octyldodecyl isostearate], the “Variation in acid value” in data set [1] (0.75th hour) is 0.21 mg KOH/g; in data set [1] (2nd hour), 0.26 mg KOH/g; in data set [1] (3rd hour), 0.28 mg KOH/g; in data set [1] (4th hour) it was 0.32 mg KOH/g. In data set [2], this compound came in with a Spreading rate of 150 mm^2/min. Also, the Skin moisture content in the data set on skin of a test subject (1st hour after application of 0.1 g to skin) is listed as 28.0%; in the data set with skin of a test subject (2nd hour after application of 0.1 g to skin) it was 22.7%; with skin of a test subject (3rd hour after application of 0.1 g to skin), 19.3%.

On to `CCCCCCCCCCC(CCCCCCCC)COC(=O)C(CC)CCCC` (stereo not shown) [Synthesis Example 1, 2-octyldodecyl 2-ethylhexanoate], for which the “Variation in acid value” in data set [1] (0.75th hour) is listed as below 0.1 mg KOH/g; in data set [1] (2nd hour), below 0.1 mg KOH/g; in data set [1] (3rd hour), 0.12 mg KOH/g; in data set [1] (4th hour) it was 0.16 mg KOH/g. In addition, the Spreading rate in data set [2] is 202 mm^2/min.
